Key:
[1] = Amount of peroxide in crospovidone mixed with sodium sulfite (Japanese Pharmacopoeia test method); type: physicochemical
Experimental: Further, 1 g crospovidone containing 201 ppm peroxide was accurately taken, and sodium sulfite (amounts: 4 levels i.e. no addition, 0.02%, 0.05% and 0.10%) was added thereto and mixed well, and the amount of the peroxide in the mixture was determined according to a test method described in the Japanese Pharmacopoeia.

[2] = Compatibility test of sodium rabeprazole with additives (residual content by HPLC, visual coloring); type: physicochemical; settings: 1 week, cold place sample = 100%; for residual content of sodium rabeprazole, 40° C.-75% RH: 40° C. 75% relative humidity
Experimental: 50 mg sodium rabeprazole and 450 mg additives shown in the table below were mixed in a mortar. The mixture was introduced into a transparent glass vial and stored in a cold place or at 60° C. or 40° C. under 75% relative humidity for 1 week and their content was determined by high performance liquid chromatography. Assuming that the content of the sample stored in the cold place is 100%, the degrees of the residual content under the respective conditions are shown in Tables 1 through 3. Further, their coloring changes were visually evaluated. The sodium rabeprazole used was amorphous in Table land crystalline in Tables 2 and 3. In Table 1, low-substituted hydroxypropyl cellulose (expressed as L-HPC) used as a disintegrating agent in addition to amorphous sodium rabeprazole was blended in the control; in Table 2, a sample further incorporating aluminum hydroxide (expressed as Al(OH) 3 in the table) i.e. an alkaline inorganic salt used as an antacid agent was used; and in Table 3, a sample incorporating polyvinyl pyrrolidone (expressed as PVP in the table) was used as a binder.

[3] = Table 2, crystalline sodium rabeprazole 50 mg + 450 mg additive
[4] = Table 3, crystalline sodium rabeprazole 50 mg + 450 mg additive
[5] = Table 1, amorphous sodium rabeprazole 50 mg + 450 mg additive

O=S([O-])[O-].[Na+].[Na+] [sodium sulfite]
amount of the peroxide in the composition ([1]; 0.02% sodium sulfite added to 1 g crospovidone containing 201 ppm peroxide): 184 ppm | amount of the peroxide in the composition ([1]; 0.05% sodium sulfite added to 1 g crospovidone containing 201 ppm peroxide): 108 ppm | amount of the peroxide in the composition ([1]; 0.10% sodium sulfite added to 1 g crospovidone containing 201 ppm peroxide): 0 ppm

COCCCOc1ccnc(C[S+]([O-])c2nc3ccccc3[nH]2)c1C (stereo not drawn) [sodium rabeprazole (crystalline), sodium rabeprazole]
residual content of sodium rabeprazole, 40° C.-75% RH [2, 3]: 91.8% | residual content of sodium rabeprazole, 60° C. [2, 3]: 99.8% | residual content of sodium rabeprazole, 40° C.-75% RH [2, 4]: 86.9% | residual content of sodium rabeprazole, 60° C. [2, 4]: 97.3%

COCCCOc1ccnc(C[S+]([O-])c2nc3ccccc3[nH]2)c1C (stereo not drawn) [sodium rabeprazole (amorphous), sodium rabeprazole]
residual content of sodium rabeprazole, 40° C.-75% RH [2, 5]: 93.9% | residual content of sodium rabeprazole, 60° C. [2, 5]: 99.1%
